Experimental data published in patent US20260297106A1, “SPIROCYCLIC SUBSTITUTED OXOISOINDOLINYL PIPERIDINE-2,6-DIONE COMPOUND” (Bristol-Myers Squibb Company, priority 2023, published 2026).

What was measured:
IKZF3 Aiolos = IKZF3 Aiolos (Homo sapiens, UniProt Q96SW2+Q9UKT9); experiment: Jurkat Cellular Degradation Assay (IKZF3 Aiolos); type: cell-based; set-up: endogenous in cells; conditions: Jurkat cells, 72 h; for Dmax: human, 100% = no detectable protein remaining, read-out: IKZF3 Aiolos max % deg. observed
IKZF3 Aiolos, sequence (Q9UKT9 whole entry): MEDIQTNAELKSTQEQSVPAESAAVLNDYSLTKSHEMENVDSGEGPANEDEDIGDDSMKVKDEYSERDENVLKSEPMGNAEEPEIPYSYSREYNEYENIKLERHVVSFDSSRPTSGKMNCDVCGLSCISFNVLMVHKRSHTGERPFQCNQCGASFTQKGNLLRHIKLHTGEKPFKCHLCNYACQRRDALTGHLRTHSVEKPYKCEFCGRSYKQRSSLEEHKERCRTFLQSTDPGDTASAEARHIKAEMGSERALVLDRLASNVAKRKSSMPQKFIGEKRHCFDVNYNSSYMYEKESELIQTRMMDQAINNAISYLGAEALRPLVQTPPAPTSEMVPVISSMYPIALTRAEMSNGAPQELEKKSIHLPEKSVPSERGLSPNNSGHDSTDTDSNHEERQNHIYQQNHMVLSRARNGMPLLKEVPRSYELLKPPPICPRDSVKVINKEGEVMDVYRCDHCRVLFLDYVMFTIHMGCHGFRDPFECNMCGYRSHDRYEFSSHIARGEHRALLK
IKZF3 Aiolos, sequence (Q96SW2 whole entry): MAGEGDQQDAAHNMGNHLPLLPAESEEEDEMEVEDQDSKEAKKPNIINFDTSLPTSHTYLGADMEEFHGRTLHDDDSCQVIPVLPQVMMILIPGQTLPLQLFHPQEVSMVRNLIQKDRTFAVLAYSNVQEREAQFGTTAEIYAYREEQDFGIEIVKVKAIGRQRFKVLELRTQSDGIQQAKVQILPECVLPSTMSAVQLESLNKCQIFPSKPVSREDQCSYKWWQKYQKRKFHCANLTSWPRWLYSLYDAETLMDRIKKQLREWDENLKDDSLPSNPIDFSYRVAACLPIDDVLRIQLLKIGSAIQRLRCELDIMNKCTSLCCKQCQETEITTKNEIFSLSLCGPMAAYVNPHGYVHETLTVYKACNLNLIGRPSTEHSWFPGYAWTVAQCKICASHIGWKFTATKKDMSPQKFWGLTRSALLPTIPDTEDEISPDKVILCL
IKZF3 Aiolos, sequence (Q16531 whole entry partner): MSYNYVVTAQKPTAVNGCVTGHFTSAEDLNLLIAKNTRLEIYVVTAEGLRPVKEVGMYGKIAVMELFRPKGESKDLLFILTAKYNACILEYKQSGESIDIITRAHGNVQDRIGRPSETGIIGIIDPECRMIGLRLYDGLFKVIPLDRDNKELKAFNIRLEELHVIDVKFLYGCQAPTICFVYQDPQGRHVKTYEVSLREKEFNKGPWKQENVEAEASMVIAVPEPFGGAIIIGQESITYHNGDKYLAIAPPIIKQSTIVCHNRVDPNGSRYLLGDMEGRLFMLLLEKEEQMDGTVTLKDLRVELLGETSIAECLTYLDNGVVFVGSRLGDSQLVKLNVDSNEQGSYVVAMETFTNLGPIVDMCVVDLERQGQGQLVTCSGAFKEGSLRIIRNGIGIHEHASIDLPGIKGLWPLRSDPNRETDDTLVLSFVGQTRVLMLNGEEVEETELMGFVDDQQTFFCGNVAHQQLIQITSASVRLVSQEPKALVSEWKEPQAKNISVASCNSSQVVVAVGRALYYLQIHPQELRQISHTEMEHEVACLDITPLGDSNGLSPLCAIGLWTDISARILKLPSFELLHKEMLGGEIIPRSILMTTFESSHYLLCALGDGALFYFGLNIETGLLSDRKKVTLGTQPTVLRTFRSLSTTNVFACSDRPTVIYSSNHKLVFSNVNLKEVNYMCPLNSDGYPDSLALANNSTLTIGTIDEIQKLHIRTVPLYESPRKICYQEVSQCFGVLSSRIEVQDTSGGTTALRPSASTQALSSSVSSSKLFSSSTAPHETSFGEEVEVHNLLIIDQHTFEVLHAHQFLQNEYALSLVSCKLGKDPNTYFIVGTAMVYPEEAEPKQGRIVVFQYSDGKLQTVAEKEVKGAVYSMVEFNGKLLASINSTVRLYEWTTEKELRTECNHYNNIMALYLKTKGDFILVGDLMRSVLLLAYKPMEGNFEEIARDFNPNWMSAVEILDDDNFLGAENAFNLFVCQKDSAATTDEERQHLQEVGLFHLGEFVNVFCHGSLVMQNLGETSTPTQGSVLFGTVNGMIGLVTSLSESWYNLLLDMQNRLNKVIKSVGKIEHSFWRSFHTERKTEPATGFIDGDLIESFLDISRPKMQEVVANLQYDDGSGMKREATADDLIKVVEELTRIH
Description: Jurkat cells were plated at 80,000 cells/well in 40 μL RPMI+10% FBS in a 384-well cell culture plate prior to using acoustic dispensing technology for adding a compound of interest. Cell cultures were incubated for 72 h at 37° C. and 5% CO2. In order to facilitate analysis, cell cultures were spun down at 200 rpm for 5 min and the supernatant was discarded. After shaking the plate to dislodge the cell pellet, cells were resuspended in 50 μL of Fixation Buffer (eBioscience FoxP3 buffer set 00-5523-00) for 60 min at room temperature. After centrifuging and discarding the supernatant, cells were permeabilized with 50 μL of Permeabilization buffer (eBioscience FoxP3 buffer set 00-5523-00) for 10 min at room temperature. Following permeabilization, cells were spun down and the supernatant was replaced with 20 μL fluorescently labelled antibodies against Helios, Ikaros and Aiolos or corresponding Isotype controls in 1× Permeabilization buffer (Ikaros-Alexa488 [Biolegend, Cat #368408, 1:50], Helios-PE [CST, Cat #29360, 1:50], Aiolos-Alexa647 [Biolegend, Cat #371106 Biolegend, 1:25]) and staining reactions were incubated for 1 h at room temperature while protected from light. Subsequently, 30 μL of 1× Permeabilization buffer was added prior to centrifuging the cells and discarding the supernatant. Stained cells were resuspended in 25 μL of flow cytometry staining buffer [PBS+0.2% bovine serum albumin (BSA)] and analyzed using an Intellicyt Ique Plus flow cytometer.
Table A-1 lists the maximum observed degradation of the IKZF1 protein, IKZF2 protein, and IKZF3 protein as measured in the Jurkat Cellular Degradation assay. The results in Table A-I were rounded to two digits. In the Jurkat Cellular Degradation assay, a value of 100% indicated no detectable protein remaining or complete degradation of the protein; and a value of 0% indicated no detectable degradation of the protein by the test compound.

IKZF1 Ikaros = IKZF1 Ikaros (Homo sapiens, UniProt Q13422+Q96SW2); experiment: Human Regulatory T Cell Degradation Assay (IKZF1 Ikaros); type: cell-based; set-up: Cryopreserved healthy donor human peripheral blood mononuclear cells; endogenous in cells; host or cells: primary human PBMC, CD8+ T cells read by flow cytometry; conditions: human regulatory T cells, 20 hours, 100% = no detectable protein remaining, read-out: IKZF1 Ikaros max % deg. observed
IKZF1 Ikaros, sequence (Q13422 whole entry): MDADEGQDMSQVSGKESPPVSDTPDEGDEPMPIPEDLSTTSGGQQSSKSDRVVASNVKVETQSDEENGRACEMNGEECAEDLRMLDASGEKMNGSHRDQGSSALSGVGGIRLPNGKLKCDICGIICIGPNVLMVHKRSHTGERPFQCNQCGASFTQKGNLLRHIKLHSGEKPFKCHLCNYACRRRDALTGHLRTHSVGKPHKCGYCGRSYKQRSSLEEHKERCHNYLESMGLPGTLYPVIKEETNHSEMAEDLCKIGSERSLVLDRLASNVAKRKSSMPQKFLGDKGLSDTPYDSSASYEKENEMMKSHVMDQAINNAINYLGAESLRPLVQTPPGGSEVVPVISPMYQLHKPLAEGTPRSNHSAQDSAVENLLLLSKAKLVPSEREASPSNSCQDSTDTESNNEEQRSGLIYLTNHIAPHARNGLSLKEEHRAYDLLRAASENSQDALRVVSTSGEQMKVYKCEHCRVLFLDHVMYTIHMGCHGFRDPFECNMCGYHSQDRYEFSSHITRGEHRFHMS
IKZF1 Ikaros, sequence (Q96SW2 whole entry): as the sequence (Q96SW2 whole entry) above
IKZF1 Ikaros, sequence (Q16531 whole entry partner): as the sequence (Q16531 whole entry partner) above
Description: Cryopreserved human regulatory T cells were thawed in RPMI+10% FBS+20 ng/mL IL-2. After being spun at 1200 rpm for 5 mins, the cells were resuspended in RPMI+10% FBS+20 ng/ml and rested at 37° C. with 5% CO2 for 3 hours. The cells were then plated at 40,000 cells/well in 40 μL RPMI+10% FBS+20 ng/ml human IL~2 in a 384 well cell culture plate prior to using acoustic dispensing technology (ECHO 555) for adding compounds of interest. Cell cultures were incubated for 20 hours at 37° C. and 5% CO2. In order to facilitate analysis, cell cultures were spun down at 1200 rpm for 5 minutes and the supernatant was discarded using an EL406 plate washer. After washing three times with 70 μL PBS, cell pellets were resuspended in 50 μL of near IR viability staining solution (Life Technologies, Cat #L34975) and incubated for 30 minutes on ice protected from light. Cells were washed three times with 70 μL PBS+0.5% BSA using an EL406 plate washer. After shaking the plate to dislodge the cell pellet, cells were resuspended in 50 μL of Fixation Buffer (eBioScience FoxP3 buffer set 00-5523-00) for 60 minutes at room temperature. After centrifuging and discarding the supernatant, cells were permeabilized with 50 μL of permeabilization buffer (eBioScience FoxP3 buffer set 00-5523-00) for 10 minutes at room temperature. Following permeabilization, cells were spun down and the supernatant was replaced with 30 μL fluorescently labelled antibodies against the intracellular targets Helios (Helios-APC [BioLegend, Cat #137222, 1:50])]), Aiolos, and Ikaros Ix Permeabilization buffer and staining reactions were incubated for 1 hour at room temperature; protected from light. Subsequently, 30 μL of 1× Permeabilization buffer was added prior to centrifuging the cells and discarding the supernatant. Stained cells were resuspended in 30 μL of flow cytometry staining buffer (PBS+0.5% BSA) and analyzed using an Intellicyt Ique Plus flow cytometer.
Table B-1 lists the maximum observed degradation of the IKZF1 protein and IKZF2 protein as measured in the Human Regulatory Cell T Degradation assay. […]

Dmax (IKZF3 Aiolos) [%]	Dmax (IKZF1 Ikaros) [%]	DC50 (IKZF3 Aiolos; concentration reducing protein level by 50% vs DMSO) [µM]	SMILES
14	19	–	O=C1CCC(N2Cc3c(ccc(-c4cc(CN5CC(c6ccccc6)C5)ccn4)c3F)C2=O)C(=O)N1 (stereo not shown) [Comparative Compound A, 3-(4-fluoro-1-oxo-5-(4-((3-phenylazetidin-1-yl)methyl)pyridin-2-yl)isoindolin-2-yl) piperidine-2,6-dione]
28	37	–	Nc1nc(-c2ccc3c(c2)CN(C2CCC(=O)NC2=O)C3=O)ccc1CN1CC2(CCC2)C1 (stereo not shown) [Comparative Compound B, 3-(5-(5-((2-azaspiro[3.3]heptan-2-yl)methyl)-6-aminopyridin-2-yl)-1-oxoisoindolin-2-yl) piperidine-2,6-dione]
33	49	> 10	Nc1nc(-c2ccc3c(c2F)CN(C2CCC(=O)NC2=O)C3=O)ccc1CN1CC2(CCCOC2)C1 (stereo not shown) [Example 1, 3-(5-(5-((6-oxa-2-azaspiro[3.5]nonan-2-yl)methyl)-6-aminopyridin-2-yl)-4-fluoro-1-oxoisoindolin-2-yl) piperidine-2,6-dione]
